Laboratory results from patent US20250151724A1, “Liquid Soil Treatments Containing Choline” (Harrell's, LLC, priority 2023, published 2025).
Read-outs that look alike come from different tables or passages of the source.

Assays:
[1] = Procedure: Soil cores (1 inch diameter and 6 inches deep) were taken from a creeping bentgrass putting green and dried at 65° C. for 48 hours then allowed to air dry for 2 days. […] The soil cores were allowed to air dry for additional 4 days and the water drop penetration test was repeated using the same method. The four treatments were 1) control (distilled water), 2) distilled water plus choline at 0.125 oz./1,000 ft^2, 3) distilled water plus choline at 0.25 oz./1,000 ft^2, and 4) distilled water plus choline at 0.5 oz./1,000 ft^2. There were 3 replications for each treatment. The water drops from distilled water or choline solution were placed on soil cores 0.75 inch from the soil surface. As soon as the water drops reached the soil, a timer was started. When each water drop had disappeared and the water had penetrated into the soil, the time elapsed was recorded.
[2] = tested on: creeping bentgrass; test: Experiment No. 1: growth chamber pot trial, foliar GB and choline under heat and mild drought stress; format: in vivo; settings: for increase of chlorophyll content: day 56, vs control; for Root Viability: TTC method
Procedure: A growth chamber pot trial was conducted as follows. […] The choline used in this study was supplied in the form of choline chloride from Sigma-Aldrich, Inc. (St. Louis, MO). […] These conditions simulated summer putting green stress. The treatments were as follows: • 1. […] GB at 0.5 oz./1,000 ft^2 every 14 days. • 3. GB at 1.0 oz./1,000 ft^2 every 14 days. • 4. […] The rate and source of fertilization for treatments #2-7 was the same as treatment #1 (fertilized control), so all seven treatments received identical fertility input. […] The term “low rate” is used in this description of Experiment No. 1 to refer to 0.5 oz./1,000 ft^2 treatments, while the term “high rate” is used to refer to 1.0 oz./1,000 ft^2 treatments. […] Photochemical efficiency (PE). Photochemical Efficiency was measured with a chlorophyll fluorometer (OS-50II, Opti-Sciences, Inc., Hudson, NH) biweekly based on the Fv/Fm, which is the ratio of variable chlorophyll fluorescence (Fv) to maximum chlorophyll fluorescence (Fm). […] Chlorophyll content. After clipping yields were weighed, leaf tissues were ground into powder, and chlorophyll was extracted in pure acetone content for 72 hours, and the absorbance was measured using a spectrophotometer. • e. Leaf carotenoids were extracted in the same sample as for chlorophyll content and carotenoids were measured using a spectrophotometer (Zhang et al., 2005). • f. Leaf proline content. […] After centrifuging, the supernatant was collected, and proline was analyzed according to Wu et al., 2017. • g. Root viability. […] Root growth characteristics. At the end of trial, roots from each pot were washed and cleaned. Roots were scanned using WinRHIZOTM technology (Regent Instruments Inc., Quebec, Canada), and root length, root surface area, root diameter, and root volume were calculated. (Zhang et al., 2017). • i. Root biomass of each pot was determined at the end of the trial. Roots were dried at 65° C. for 72 hours before being weighed.

[3] = choline 0.125 oz/1000 ft2 in distilled water
[4] = choline 0.25 oz/1000 ft2 in distilled water
[5] = choline 0.5 oz/1000 ft2 in distilled water

C[N+](C)(C)CCO.[Cl-] [Choline, choline chloride]
time of water drop penetration, first test ([1]; 2 days after oven drying of soil cores, not quantified): reduced the time of water drop penetration | Time of water drop penetration, Average [1, 3]: 250.3ab seconds | Time of water drop penetration, Rep I [1, 3]: 454 s | Time of water drop penetration, Rep II [1, 3]: 106 s | Time of water drop penetration, Rep III [1, 3]: 191 s | Time of water drop penetration, Average ([1]; choline 0.125 oz/1000 ft2 in distilled water, listed as choline): 250.3 s | Time of water drop penetration, Average [1, 4]: 129.7ab seconds | Time of water drop penetration, Rep I [1, 4]: 110 s | Time of water drop penetration, Rep II [1, 4]: 72 s | Time of water drop penetration, Rep III [1, 4]: 207 s | Time of water drop penetration, Average ([1]; choline 0.25 oz/1000 ft2 in distilled water, listed as choline): 129.7 s | Time of water drop penetration, Average [1, 5]: 97.7b seconds | Time of water drop penetration, Rep I [1, 5]: 97 s | Time of water drop penetration, Rep II [1, 5]: 26 s | Time of water drop penetration, Rep III [1, 5]: 170 s | Time of water drop penetration, Average ([1]; choline 0.5 oz/1000 ft2 in distilled water, listed as choline): 97.7 s | Water drop penetration time shorter relative to the control (distilled water) ([1]; choline solution 0.5 oz./1,000 ft^2): 2.5 fold | increase of chlorophyll content ([2]; 0.5 oz): 32.4% | Clippings dry wt ([2]; 0.5 oz/1000 ft^2, Total): 0.691bc g/pot | Carotenoids ([2]; 0.5 oz/1000 ft^2, day 0): 1.32a mg/g FW | Chlorophyll ([2]; 0.5 oz/1000 ft^2, day 0): 3.50a mg/g FW | Leaf color (1-9, 9 = dark green) ([2]; 0.5 oz/1000 ft^2, day 0): 7.5a | PE (Fv/Fm) ([2]; 0.5 oz/1000 ft^2, day 0): 0.763a | Proline ([2]; 0.5 oz/1000 ft^2, day 0): 20.1a mg/g FW | Carotenoids ([2]; 0.5 oz/1000 ft^2, day 14): 1.32a mg/g FW | Chlorophyll ([2]; 0.5 oz/1000 ft^2, day 14): 3.51a mg/g FW | Clippings dry wt ([2]; 0.5 oz/1000 ft^2, day 14): 0.149b g/pot | Leaf color (1-9, 9 = dark green) ([2]; 0.5 oz/1000 ft^2, day 14): 7.3abc | PE (Fv/Fm) ([2]; 0.5 oz/1000 ft^2, day 14): 0.751a | Proline ([2]; 0.5 oz/1000 ft^2, day 14): 46.1a mg/g FW | Carotenoids ([2]; 0.5 oz/1000 ft^2, day 28): 1.18ab mg/g FW | Chlorophyll ([2]; 0.5 oz/1000 ft^2, day 28): 3.09ab mg/g FW | Clippings dry wt ([2]; 0.5 oz/1000 ft^2, day 28): 0.151b g/pot | Leaf color (1-9, 9 = dark green) ([2]; 0.5 oz/1000 ft^2, day 28): 6.9a | PE (Fv/Fm) ([2]; 0.5 oz/1000 ft^2, day 28): 0.676ab | Proline ([2]; 0.5 oz/1000 ft^2, day 28): 24.3b mg/g FW | Carotenoids ([2]; 0.5 oz/1000 ft^2, day 42): 1.12a mg/g FW | Chlorophyll ([2]; 0.5 oz/1000 ft^2, day 42): 2.76ab mg/g FW | Clippings dry wt ([2]; 0.5 oz/1000 ft^2, day 42): 0.159a g/pot | Leaf color (1-9, 9 = dark green) ([2]; 0.5 oz/1000 ft^2, day 42): 7.1a | PE (Fv/Fm) ([2]; 0.5 oz/1000 ft^2, day 42): 0.631b | Proline ([2]; 0.5 oz/1000 ft^2, day 42): 30.2c mg/g FW | Carotenoids ([2]; 0.5 oz/1000 ft^2, day 56): 1.12a mg/g FW | Chlorophyll ([2]; 0.5 oz/1000 ft^2, day 56): 2.98a mg/g FW | Clippings dry wt ([2]; 0.5 oz/1000 ft^2, day 56): 0.233ab g/pot | Leaf color (1-9, 9 = dark green) ([2]; 0.5 oz/1000 ft^2, day 56): 7.0a | PE (Fv/Fm) ([2]; 0.5 oz/1000 ft^2, day 56): 0.649a | Proline ([2]; 0.5 oz/1000 ft^2, day 56): 79.6a mg/g FW | Root Biomass ([2]; 0.5 oz/1000 ft^2, end of trial): 1.72ab g/pot | Root Diameter ([2]; 0.5 oz/1000 ft^2, end of trial): 0.192a mm | Root Length ([2]; 0.5 oz/1000 ft^2, end of trial): 39.7ab mm/cm^3 | Root SA (surface area) ([2]; 0.5 oz/1000 ft^2, end of trial): 2.40ab cm^3/cm^3 | Root Volume ([2]; 0.5 oz/1000 ft^2, end of trial): 11.6a dm^3/cm^3 | Root Viability ([2]; 0.5 oz/1000 ft^2, end of trial): 0.739bcd A490/g FW | increase of chlorophyll content ([2]; 1.0 oz): 22.2% | Clippings dry wt ([2]; 1.0 oz/1000 ft^2, Total): 0.842ab g/pot | Carotenoids ([2]; 1.0 oz/1000 ft^2, day 0): 1.31a mg/g FW | Chlorophyll ([2]; 1.0 oz/1000 ft^2, day 0): 3.46a mg/g FW | Leaf color (1-9, 9 = dark green) ([2]; 1.0 oz/1000 ft^2, day 0): 7.5a | PE (Fv/Fm) ([2]; 1.0 oz/1000 ft^2, day 0): 0.777a | Proline ([2]; 1.0 oz/1000 ft^2, day 0): 19.8a mg/g FW | Carotenoids ([2]; 1.0 oz/1000 ft^2, day 14): 1.33a mg/g FW | Chlorophyll ([2]; 1.0 oz/1000 ft^2, day 14): 3.51a mg/g FW | Clippings dry wt ([2]; 1.0 oz/1000 ft^2, day 14): 0.187ab g/pot | Leaf color (1-9, 9 = dark green) ([2]; 1.0 oz/1000 ft^2, day 14): 7.5a | PE (Fv/Fm) ([2]; 1.0 oz/1000 ft^2, day 14): 0.738ab | Proline ([2]; 1.0 oz/1000 ft^2, day 14): 43.5ab mg/g FW | Carotenoids ([2]; 1.0 oz/1000 ft^2, day 28): 1.23a mg/g FW | Chlorophyll ([2]; 1.0 oz/1000 ft^2, day 28): 3.31a mg/g FW | Clippings dry wt ([2]; 1.0 oz/1000 ft^2, day 28): 0.183ab g/pot | Leaf color (1-9, 9 = dark green) ([2]; 1.0 oz/1000 ft^2, day 28): 7.3a | PE (Fv/Fm) ([2]; 1.0 oz/1000 ft^2, day 28): 0.718ab | Proline ([2]; 1.0 oz/1000 ft^2, day 28): 24.6b mg/g FW | Carotenoids ([2]; 1.0 oz/1000 ft^2, day 42): 1.17a mg/g FW | Chlorophyll ([2]; 1.0 oz/1000 ft^2, day 42): 2.93a mg/g FW | Clippings dry wt ([2]; 1.0 oz/1000 ft^2, day 42): 0.223a g/pot | Leaf color (1-9, 9 = dark green) ([2]; 1.0 oz/1000 ft^2, day 42): 7.1a | PE (Fv/Fm) ([2]; 1.0 oz/1000 ft^2, day 42): 0.683ab | Proline ([2]; 1.0 oz/1000 ft^2, day 42): 43.8ab mg/g FW | Carotenoids ([2]; 1.0 oz/1000 ft^2, day 56): 1.06a mg/g FW | Chlorophyll ([2]; 1.0 oz/1000 ft^2, day 56): 2.75ab mg/g FW | Clippings dry wt ([2]; 1.0 oz/1000 ft^2, day 56): 0.249a g/pot | Leaf color (1-9, 9 = dark green) ([2]; 1.0 oz/1000 ft^2, day 56): 7.0a | PE (Fv/Fm) ([2]; 1.0 oz/1000 ft^2, day 56): 0.664a | Proline ([2]; 1.0 oz/1000 ft^2, day 56): 67.6a mg/g FW | Root Biomass ([2]; 1 oz/1000 ft^2, end of trial): 1.57ab g/pot | Root Diameter ([2]; 1 oz/1000 ft^2, end of trial): 0.192a mm | Root Length ([2]; 1 oz/1000 ft^2, end of trial): 39.0ab mm/cm^3 | Root SA (surface area) ([2]; 1 oz/1000 ft^2, end of trial): 2.32ab cm^3/cm^3 | Root Volume ([2]; 1 oz/1000 ft^2, end of trial): 11.0a dm^3/cm^3 | Root Viability ([2]; 1 oz/1000 ft^2, end of trial): 1.019abc A490/g FW
